# Assay results taken from patent US8685925B2, “Method and compositions for treating stroke with fever” (Nono Inc., priority 2006, dated 2014).
# Read-outs that look alike come from different tables or passages of the source. No end group written: not given here.
# Tests used:
# [1] = target: PSD-95 (Homo sapiens, UniProt P78352); settings: Kornau, 1995; Aarts, 2002; cited from earlier work
# [2] = system: Sprague-Dawley rats; assay: Core temperature after sham procedure with peptide injection; type: in vivo, rat; settings: single i.v. injection of 3 nMole/g
# Experimental: A day prior to undergoing ischemia, the animals were implanted with intraperitoneal transmitters (E-Mitter; Mini Mitter/Respironics, Oregon, USA) permitting core temperature (CT) and activity monitoring. Monitoring was performed continuously from 20 hours before, to 24 hours after, the pMCAO (Mini-Mitter VitalView telemetric monitoring software; Mini Mitter/Respironics, Oregon, USA). During the animal surgery the animals were away from the telemetric receivers, so CT was measured with a rectal probe and maintained at 36.5° C. to 37.5° C. using a heating lamp or homeothermic blanket. […] Temporalis muscle temperatures were measured with the same thermocouple probe inserted into the muscle through an 18 gauge needle. Cage temperatures were continuously recorded using an external temperature probe and software (Tektronix WaveStar software; Tektronix, Texas, USA) running on a digital oscilloscope and a separate computer. […]
# Previous experience has shown that the neuroprotective effects of some anti-ischemic drugs might have been, at least in part, related to drug-induced hypothermia (e.g., MK-801; Corbett, 1990). […] To determine whether PSD-95 inhibition affected core temperature (CT), it was measured in rats (n=6) implanted with telemetric intra-peritoneal temperature monitors. […]
# [3] = system: Sprague-Dawley rats; type: in vivo, rat
# Experimental: (§1) The peptides were prepared daily from lyophilized powder by dissolving them in normal saline to the final desired concentration. They were administered intravenously via a slow (4-5 min) injection by individuals blinded to the treatment group.
# (§2) Experiments were performed in male adult Sprague-Dawley rats weighing 250-300 g (Charles River Laboratory, Canada). All procedures conformed to guidelines established by the Canadian Council on Animal Care and with the approval of the University Health Network animal care committee. All animals were housed in groups of 1-2 animals in cages with free access to food and water and in rooms having an ambient temperature of 20±1° C. and 12:12 hr light/dark cycle.
# (§3) Each animal was weighed and then anesthesia was induced. For the permanent pial vessel occlusion model, rats were anesthetized with ketamine (100 mg/kg), acepromazine (2 mg/kg), and xylazine (50 mg/kg), supplemented with one third the initial dose as required. For the two permanent middle cerebral artery occlusion (pMCAO) studies, anesthesia was induced with 3.5% halothane in a mixture of nitrous oxide and oxygen (Vol. 2:1) and maintained with 0.8% halothane in the mixture. Rats were endotracheally intubated and mechanically ventilated (60 strokes/min, tidal volume of […]). A rectal temperature probe was inserted. Polyethylene catheters (PE-50) were introduced into the left femoral artery and vein for blood pressure recording, blood sampling, and drug injection. Mean arterial blood pressure was measured with the use of an indwelling femoral arterial catheter connected to a pressure transducer and was recorded continuously. Serial measurements were made of arterial blood gases, pH, and blood glucose.
# The left middle cerebral artery was occluded by the intraluminal suture method described by Longa (1989). In brief, the left common carotid artery (CCA) was exposed through a midline neck incision and was dissected free from surrounding nerves and fascia, from its bifurcation to the base of the skull. The occipital artery branches of the external carotid artery (ECA) were then isolated, and these branches were dissected and coagulated. The ECA was dissected further distally and coagulated along with the terminal lingual and maxillary artery branches, which were then divided. The internal carotid artery (ICA) was isolated and carefully separated from the adjacent vagus nerve, and the pterygopalatine artery was ligated close to its origin. The tip of a 4-cm length of 3-0 monofilament nylon suture (Harvard Apparatus) was rounded by burning to achieve a tip diameter of 0.33-0.36 mm and tip length of 0.5-0.6 mm and coated with poly-L-lysine (Belayev et al., 1996). The suture was introduced through the CCA and advanced into the ICA and thence into the circle of Willis (about 18-20 mm from the carotid bifurcation), effectively occluding the middle cerebral artery. The silk suture around the CCA was tightened around the intraluminal nylon suture to secure it and permanently occlude the middle cerebral artery. Sham operated animals underwent the identical surgical procedure, including permanent ligation of the CCA, but without suture insertion to occlude the MCA. The pMCAO procedure was considered to be adequate if the animal's neurobehavioral score (below) exceeded 10 at 2 h after pMCAO. Animals were allowed to recover from anesthesia at room temperature.
# At 24 h after pMCAO the animals were deeply anaesthetized employing halothane inhalation and the brains were quickly removed, sliced into 8 standard coronal sections, and incubated for 30 min in 2% triphenyltetrazolium chloride (TTC; Sigma, St. Louis, USA) in saline at 37° C. […] Each section was digitally photographed, and the infarcts were then traced onto templates representing the 8 standardized coronal slices. The use of the templates corrects for any brain edema produced by the infarct, allowing for a more accurate determination of infarct volume. […]
# [4] = system: Sprague-Dawley rats; type: in vivo, rat; settings: pial vessel occlusion study
# Experimental: as §1, §2
# Each animal was weighed and then anesthesia was induced. For the permanent pial vessel occlusion model, rats were anesthetized with ketamine (100 mg/kg), acepromazine (2 mg/kg), and xylazine (50 mg/kg), supplemented with one third the initial dose as required. For the two permanent middle cerebral artery occlusion (pMCAO) studies, anesthesia was induced with 3.5% halothane in a mixture of nitrous oxide and oxygen (Vol. 2:1) and maintained with 0.8% halothane in the mixture. […] Mean arterial blood pressure was measured with the use of an indwelling femoral arterial catheter connected to a pressure transducer and was recorded continuously. […]
# [5] = system: Sprague-Dawley rats; assay: Physiological parameters in the pMCAO studies (body weight, MABP, blood gases, pH); type: in vivo, rat; settings: for pH: arterial blood; for pH / MABP / pCO2 / pO2: first line, time not given
# Experimental: as §3
# PSD-95, sequence (P78352 whole entry, species assumed): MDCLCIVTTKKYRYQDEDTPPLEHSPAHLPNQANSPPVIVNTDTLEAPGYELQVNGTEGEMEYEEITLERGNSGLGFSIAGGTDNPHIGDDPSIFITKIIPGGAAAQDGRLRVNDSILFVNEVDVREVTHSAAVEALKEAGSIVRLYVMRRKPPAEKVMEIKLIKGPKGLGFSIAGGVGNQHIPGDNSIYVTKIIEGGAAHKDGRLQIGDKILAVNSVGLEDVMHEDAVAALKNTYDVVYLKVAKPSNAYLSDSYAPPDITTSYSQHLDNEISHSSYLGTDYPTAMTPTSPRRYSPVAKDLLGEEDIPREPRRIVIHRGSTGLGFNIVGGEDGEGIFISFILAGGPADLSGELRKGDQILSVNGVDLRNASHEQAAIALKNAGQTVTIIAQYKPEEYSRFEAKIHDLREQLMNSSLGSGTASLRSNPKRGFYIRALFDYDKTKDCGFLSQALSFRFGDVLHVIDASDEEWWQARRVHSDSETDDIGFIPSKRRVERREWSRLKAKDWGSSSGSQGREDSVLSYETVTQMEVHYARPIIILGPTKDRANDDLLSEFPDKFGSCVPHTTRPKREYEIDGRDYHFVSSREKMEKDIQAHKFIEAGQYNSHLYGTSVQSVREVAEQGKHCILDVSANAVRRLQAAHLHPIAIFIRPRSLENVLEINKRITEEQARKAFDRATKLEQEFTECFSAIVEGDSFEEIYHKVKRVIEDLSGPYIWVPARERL
sequence,measurement,setting,value
"KLSSIEADA [NR2B(ADA), reference compound]",binding to PSD-95,[1],incapable of binding PSD-95
KLSSIETDV (PL protein motif) [NR2B9c(TDA)],binding to PSD-95,[1],interacts with the PDZ2 domain of PSD-9S
YGRKKRRQRRRKLSSIESDV [Tat-NR2B9c(SDV)],difference in core temperature versus sham (vehicle) animals,[2]; 20 h before until 24 h after,no differences in CT at any time point
same,increase in core temperature after termination of anesthesia,"[2]; no ischemia, n=6",~0.5 °C
same,Post-op Deaths,"[3]; pMCAO study #1, 0.3 nMole/g",1/1
same,Post-op Deaths,"[3]; pMCAO study #1, 3.0 nMole/g",1
same,Post-op Deaths,"[3]; pMCAO study #2, 0.3 nMole/g",1/1
same,Post-op Deaths,[4]; 0.3 nMole/g,0
same,Post-op Deaths,[4]; 3.0 nMole/g,0
YGRKKRRQRRRKLSSIETDV [Tat-NR2B9c(TDV)],Post-op Deaths,"[3]; pMCAO study #1, 0.3 nMole/g",0
same,Post-op Deaths,"[3]; pMCAO study #1, 3.0 nMole/g",0
same,Post-op Deaths,"[3]; pMCAO study #2, 0.3 nMole/g",2
same,Post-op Deaths,"[3]; pMCAO study #2, 3.0 nMole/g",3
same,MABP 10 min,"[5]; 1st study, 0.3 nmol/g",121.44 ± 5.23 mmHg
same,pCO2 10 min,"[5]; 1st study, 0.3 nmol/g",39.33 ± 0.73 mmHg
same,pH 10 min,"[5]; 1st study, 0.3 nmol/g",7.44 ± 0.01
same,pO2 10 min,"[5]; 1st study, 0.3 nmol/g",124.22 ± 6.34 mmHg
same,MABP 70 min,"[5]; 1st study, 0.3 nmol/g",129.44 ± 6.54 mmHg
same,pCO2 70 min,"[5]; 1st study, 0.3 nmol/g",38.67 ± 0.93 mmHg
same,pH 70 min,"[5]; 1st study, 0.3 nmol/g",7.41 ± 0.01
same,pO2 70 min,"[5]; 1st study, 0.3 nmol/g",137.67 ± 4.75 mmHg
same,pH,"[5]; 1st study, 0.3 nmol/g",7.42 ± 0.02
same,MABP,"[5]; 1st study, 0.3 nmol/g",126.00 ± 5.54 mmHg
same,pCO2,"[5]; 1st study, 0.3 nmol/g",38.11 ± 0.81 mmHg
same,pO2,"[5]; 1st study, 0.3 nmol/g",131.44 ± 9.11 mmHg
same,MABP 10 min,"[5]; 1st study, 3 nmol/g",140.63 ± 7.64 mmHg
same,pCO2 10 min,"[5]; 1st study, 3 nmol/g",40.25 ± 0.99 mmHg
same,pH 10 min,"[5]; 1st study, 3 nmol/g",7.43 ± 0.01
same,pO2 10 min,"[5]; 1st study, 3 nmol/g",136.00 ± 2.57 mmHg
same,MABP 70 min,"[5]; 1st study, 3 nmol/g",102.13 ± 2.39 mmHg
same,pCO2 70 min,"[5]; 1st study, 3 nmol/g",40.38 ± 0.84 mmHg
same,pH 70 min,"[5]; 1st study, 3 nmol/g",7.40 ± 0.01
same,pO2 70 min,"[5]; 1st study, 3 nmol/g",132.25 ± 4.65 mmHg
same,pH,"[5]; 1st study, 3 nmol/g",7.44 ± 0.01
same,MABP,"[5]; 1st study, 3 nmol/g",123.63 ± 6.27 mmHg
same,pCO2,"[5]; 1st study, 3 nmol/g",39.75 ± 0.70 mmHg
same,pO2,"[5]; 1st study, 3 nmol/g",130.63 ± 6.24 mmHg
same,MABP 10 min,"[5]; 2nd study, 0.3 nmol/g",140.50 ± 4.69 mmHg
same,pCO2 10 min,"[5]; 2nd study, 0.3 nmol/g",42.75 ± 0.59 mmHg
same,pH 10 min,"[5]; 2nd study, 0.3 nmol/g",7.38 ± 0.01
same,pO2 10 min,"[5]; 2nd study, 0.3 nmol/g",132.00 ± 4.92 mmHg
same,MABP 70 min,"[5]; 2nd study, 0.3 nmol/g",129.25 ± 8.09 mmHg
same,pCO2 70 min,"[5]; 2nd study, 0.3 nmol/g",41.75 ± 1.13 mmHg
same,pH 70 min,"[5]; 2nd study, 0.3 nmol/g",7.41 ± 0.01
same,pO2 70 min,"[5]; 2nd study, 0.3 nmol/g",121.00 ± 4.39 mmHg
same,pH,"[5]; 2nd study, 0.3 nmol/g",7.38 ± 0.02
same,MABP,"[5]; 2nd study, 0.3 nmol/g",119.00 ± 4.11 mmHg
same,pCO2,"[5]; 2nd study, 0.3 nmol/g",39.25 ± 1.06 mmHg
same,pO2,"[5]; 2nd study, 0.3 nmol/g",133.13 ± 5.15 mmHg
same,pCO2 10 min,"[5]; 2nd study, 3 nmol/g",37.50 ± 0.80 mmHg
same,pH 10 min,"[5]; 2nd study, 3 nmol/g",7.38 ± 0.02
same,pO2 10 min,"[5]; 2nd study, 3 nmol/g",120.13 ± 6.53 mmHg
same,MABP 70 min,"[5]; 2nd study, 3 nmol/g",130.25 ± 12.26 mmHg
same,pCO2 70 min,"[5]; 2nd study, 3 nmol/g",40.88 ± 1.42 mmHg
same,pH 70 min,"[5]; 2nd study, 3 nmol/g",7.39 ± 0.02
same,pO2 70 min,"[5]; 2nd study, 3 nmol/g",124.63 ± 4.44 mmHg
same,pH,"[5]; 2nd study, 3 nmol/g",7.41 ± 0.01
same,MABP,"[5]; 2nd study, 3 nmol/g",124.13 ± 6.29 mmHg
same,pCO2,"[5]; 2nd study, 3 nmol/g",38.63 ± 1.05 mmHg
same,pO2,"[5]; 2nd study, 3 nmol/g",141.13 ± 10.44 mmHg
